From patent US20160115540A1, “PRODRUGS AND DRUGS” (Biogen MA Inc., priority 2013, published 2016)
Where a name gives a salt, the structure may show the parent alone.

System: jejunum
Assay: Transcriptional profiling on Affymetrix GeneChips, single dose, naïve mice: jejunum
Assay type: in vivo, C57BL/6 mice
Description: Treated mice were sacrificed at 2, 7, or 12 hours. Tissues (liver, spleen, kidney, jejunum, cortex, hippocampus, striatum and whole blood) were collected and analyzed by transcriptional profiling on mouse Affymetrix GeneChips.
Tissues (liver, spleen, kidney, jejunum, cortex, hippocampus, striatum and whole blood) were collected and analyzed by transcriptional profiling on mouse Affymetrix GeneChips.
Animals were exposed to CO2 and whole blood collected via cardiac puncture. Two 100 μl aliquots of whole blood were collected in 1.5 mL microcentrifuge tubes and snap frozen in liquid nitrogen. Peripheral (liver, spleen, kidney and jejunum) and CNS brain (cerebellum, hippocampus, striatum and cortex) tissues were harvested and snap frozen in liquid nitrogen, with special care taken to collect tissues of similar size and from the same location. All samples were stored at −80° C. until RNA extraction was conducted.
For RNA preparation, frozen tissues were placed in 2 mL RNAse-free 96-well blocks with 1.5 mL QIAzol Lysis Reagent (QIAgen) and a 3.2 mm stainless steel bead (BioSpec Products, Bartlesville, Okla.). Tissues were disrupted for four cycles of 45 seconds in a Mini-Beadbeater (Biospec Products). RNA was extracted in chloroform and the aqueous phase was mixed with an equal volume of 70% ethanol. Extracted RNA was applied to RNeasy 96 plates and purified by the spin method according to the manufacturer's protocol (RNeasy 96 Universal Tissue Protocol, QIAgen, Hilden Germany).
Automated sample amplifications and biotin labelings were carried out using the NuGEN Ovation RNA Amplification system V2 (Cat #3100), Ovation WB reagent (Cat #1300) and Encore Biotin module (Cat #4200) (NuGEN Technologies, Inc, San Carlos, Calif.) according to manufacturer's recommendations using an Arrayplex automated liquid handler (Beckman Coulter, Indianapolis, Ind.). Two micrograms of biotin labeled sscDNA probe were hybridized to Affymetrix GeneChip Affymetrix HT_MG-430_PM plate arrays with modified conditions as described in Allaire et al. Washing and staining of the hybridized arrays were completed as described in the GeneChip Expression analysis technical manual for HT plate arrays using the Genechip® Array Station (Affymetrix, Santa Clara, Calif.) with modifications as described in Allaire et al. The processed GeneChip® plate arrays were scanned using GeneTitan scanner (Affymetrix, Santa Clara, Calif.).
Affymetrix scans were subject to quality control (QC) measures. These tests included a visual inspection of the distribution of raw signal intensities and an assessment of RNA degradation, relative log expression (RLE), and normalized unsealed standard error (NUSE). All sample scans that passed these QC metrics were included in the analysis.
All CEL files were subjected to GC-content-based Robust Multi-array Average (GCRMA) normalization (version 2.20.0) (Irizarry R A, et al. Nucleic Acids Res 2003; 31:e15; Li C, et al. Genome Biol 2001; 2:[…]0032). Expression levels were log (base 2) transformed.
All calculations and analyses were carried out using R (version 2.11.1) and Bioconductor computational tools (Gentleman R. Springer Science+Business Media 2005).

Compound: COC(=O)/C=C/C(=O)O [MMF, monomethyl fumarate]
- FC Akr1c12 (1422000_PM_at) (100MMF-vs-Veh, 12 h): 1.52
- FC Akr1c13 (1418672_PM_at) (100MMF-vs-Veh, 12 h): 2.01
- FC Aldh1a7 (1418601_PM_at) (100MMF-vs-Veh, 12 h): 1.74
- FC Apob (1457554_PM_at) (100MMF-vs-Veh, 12 h): −1.54
- FC C030026M15Rik (1431418_PM_at) (100MMF-vs-Veh, 12 h): −1.81
- FC Dio1 (1417991_PM_at) (100MMF-vs-Veh, 12 h): −1.51
- FC Ephx1 (1422438_PM_at) (100MMF-vs-Veh, 12 h): 2.17
- FC Gss (1448273_PM_at) (100MMF-vs-Veh, 12 h): 1.57
- FC Gstm1 (1416416_PM_x_at) (100MMF-vs-Veh, 12 h): 3.70
- FC Gstm2 (1416411_PM_at) (100MMF-vs-Veh, 12 h): 2.20
- FC Kif1b (1451642_PM_at) (100MMF-vs-Veh, 12 h): −1.51
- Number of genes, DMF Only / MMF Only (Jejunum): 35
- 6-Sep, septin 6 (1424181_PM_at) differential expression (Jejunum, 2 hr): 1.56
- Areg (1421134_PM_at) differential expression (Jejunum, 2 hr): 2.71
- Blvrb (1451386_PM_at) differential expression (Jejunum, 2 hr): 1.57
- Bmp2 (1423635_PM_at) differential expression (Jejunum, 2 hr): −1.55
- Cbr1 (1460196_PM_at) differential expression (Jejunum, 2 hr): 1.53
- Dnase2a (1430135_PM_at) differential expression (Jejunum, 2 hr): 1.79
- Dppa5a (1416552_PM_at) differential expression (Jejunum, 2 hr): 2.64
- Ereg (1419431_PM_at) differential expression (Jejunum, 2 hr): 2.00
- Ero1l (1419030_PM_at) differential expression (Jejunum, 2 hr): 1.90
- Esd (1441604_PM_at) differential expression (Jejunum, 2 hr): 1.52
- Figf (1438953_PM_at) differential expression (Jejunum, 2 hr): 1.63
- G6pd2 /// G6pdx (1422327_PM_s_at) differential expression (Jejunum, 2 hr): 1.74
- Gabarapl1 (1416418_PM_at) differential expression (Jejunum, 2 hr): 1.52
- Gclc (1424296_PM_at) differential expression (Jejunum, 2 hr): 3.99
- Gsr (1421816_PM_at) differential expression (Jejunum, 2 hr): 2.19
- Gss (1441931_PM_x_at) differential expression (Jejunum, 2 hr): 1.92
- Gsta3 (1423436_PM_at) differential expression (Jejunum, 2 hr): 3.64
- Gsta4 (1416368_PM_at) differential expression (Jejunum, 2 hr): 1.73
- Gstm1 (1416416_PM_x_at) differential expression (Jejunum, 2 hr): 2.38
- Hfe (1422645_PM_at) differential expression (Jejunum, 2 hr): 1.73
- Hmox1 (1448239_PM_at) differential expression (Jejunum, 2 hr): 1.81
- Htatip2 (1451814_PM_a_at) differential expression (Jejunum, 2 hr): 1.53
- Lpin2 (1452837_PM_at) differential expression (Jejunum, 2 hr): 1.61
- Lrp8 (1440882_PM_at) differential expression (Jejunum, 2 hr): 2.23
- Mafg (1448916_PM_at) differential expression (Jejunum, 2 hr): 1.95
- Nqo1 (1423627_PM_at) differential expression (Jejunum, 2 hr): 2.16
- Osgin1 (1424022_PM_at) differential expression (Jejunum, 2 hr): 1.98
- Pgm2 (1437240_PM_at) differential expression (Jejunum, 2 hr): 2.09
- Prr5l (1452834_PM_at) differential expression (Jejunum, 2 hr): −1.64
- Prss8 (1418320_PM_at) differential expression (Jejunum, 2 hr): 2.41
- Setd4 (1435405_PM_at) differential expression (Jejunum, 2 hr): 2.11
- Slc2a1 (1426600_PM_at) differential expression (Jejunum, 2 hr): 1.68
- Slc40a1 (1417061_PM_at) differential expression (Jejunum, 2 hr): 2.73
- Slc48a1 (1450410_PM_a_at) differential expression (Jejunum, 2 hr): 1.62
- Slfn2 (1450165_PM_at) differential expression (Jejunum, 2 hr): −1.82
- Sos1 (1421886_PM_at) differential expression (Jejunum, 2 hr): −1.57
- Srxn1 (1425351_PM_at) differential expression (Jejunum, 2 hr): 1.77
- St3gal6 (1449078_PM_at) differential expression (Jejunum, 2 hr): 1.52
- Tkt (1436605_PM_at) differential expression (Jejunum, 2 hr): 1.73
- Tnfaip3 (1433699_PM_at) differential expression (Jejunum, 2 hr): −1.67
- Tox3 (1436600_PM_at) differential expression (Jejunum, 2 hr): 1.81
- Ugt2b5 (1419622_PM_at) differential expression (Jejunum, 2 hr): 3.13
- Abcc2 (1450109_PM_s_at) differential expression (Jejunum, 7 hr): 1.51
- Abcc3 (1428988_PM_at) differential expression (Jejunum, 7 hr): 2.26
- Acsm5 (1437662_PM_at) differential expression (Jejunum, 7 hr): 1.71
- Akr1c12 /// Akr1c13 (1450455_PM_s_at) differential expression (Jejunum, 7 hr): 1.58
- Akr1c13 (1418672_PM_at) differential expression (Jejunum, 7 hr): 1.86
- Aldh1a7 (1418601_PM_at) differential expression (Jejunum, 7 hr): 1.86
- Areg (1421134_PM_at) differential expression (Jejunum, 7 hr): 2.93
- Asns (1451095_PM_at) differential expression (Jejunum, 7 hr): 1.60
- Blvrb (1451386_PM_at) differential expression (Jejunum, 7 hr): 1.55
- Capn13 (1437960_PM_at) differential expression (Jejunum, 7 hr): −1.75
- Cbr1 (1460196_PM_at) differential expression (Jejunum, 7 hr): 1.83
- Ces1e (1419510_PM_at) differential expression (Jejunum, 7 hr): 2.44
- Ddc (1426215_PM_at) differential expression (Jejunum, 7 hr): 2.03
- Dppa5a (1416552_PM_at) differential expression (Jejunum, 7 hr): 1.88
- Enkur (1428960_PM_at) differential expression (Jejunum, 7 hr): −1.56
- Entpd5 (1433763_PM_at) differential expression (Jejunum, 7 hr): 1.60
- Esd (1441604_PM_at) differential expression (Jejunum, 7 hr): 2.15
- Fam162a (1451385_PM_at) differential expression (Jejunum, 7 hr): 1.67
- G6pd2 /// G6pdx (1422327_PM_s_at) differential expression (Jejunum, 7 hr): 2.06
- G6pdx (1448354_PM_at) differential expression (Jejunum, 7 hr): 1.76
- Gclc (1424296_PM_at) differential expression (Jejunum, 7 hr): 2.87
- Gm3776 /// Gsta1 /// Gsta2 (1421041_PM_s_at) differential expression (Jejunum, 7 hr): 1.90
- Gm14446 (1435529_PM_at) differential expression (Jejunum, 7 hr): −1.65
- Gpx2 (1449279_PM_at) differential expression (Jejunum, 7 hr): 1.53
- Gsr (1421816_PM_at) differential expression (Jejunum, 7 hr): 3.13
- Gss (1441931_PM_x_at) differential expression (Jejunum, 7 hr): 2.20
- Gsta3 (1423436_PM_at) differential expression (Jejunum, 7 hr): 5.71
- Gsta4 (1416368_PM_at) differential expression (Jejunum, 7 hr): 2.52
- Gstm1 (1416416_PM_x_at) differential expression (Jejunum, 7 hr): 4.80
- Gstm2 (1416411_PM_at) differential expression (Jejunum, 7 hr): 2.09
- Gstm4 (1424835_PM_at) differential expression (Jejunum, 7 hr): 5.75
- Gstm6 (1422072_PM_a_at) differential expression (Jejunum, 7 hr): 2.23
